Where two headings read alike, the source gives them in different places.
Experiments:
[1] = molecular target: T1, FAAH (fatty acid amide hydrolase) (Rattus norvegicus, UniProt P97612); assay: FAAH screening: inhibition of anandamide metabolism to arachidonic acid; assay type: biochemical; settings: 25 nmoles compound with 25 nmoles AEA, 75 μg enzyme, 250 μL, 15 min
T1 construct: Anandamide Amidase Activity in Rat Brain Microsomes; from tissue; host or cells: rat brain microsomes (by the cited procedure)
T1 sequence (P97612 1-579): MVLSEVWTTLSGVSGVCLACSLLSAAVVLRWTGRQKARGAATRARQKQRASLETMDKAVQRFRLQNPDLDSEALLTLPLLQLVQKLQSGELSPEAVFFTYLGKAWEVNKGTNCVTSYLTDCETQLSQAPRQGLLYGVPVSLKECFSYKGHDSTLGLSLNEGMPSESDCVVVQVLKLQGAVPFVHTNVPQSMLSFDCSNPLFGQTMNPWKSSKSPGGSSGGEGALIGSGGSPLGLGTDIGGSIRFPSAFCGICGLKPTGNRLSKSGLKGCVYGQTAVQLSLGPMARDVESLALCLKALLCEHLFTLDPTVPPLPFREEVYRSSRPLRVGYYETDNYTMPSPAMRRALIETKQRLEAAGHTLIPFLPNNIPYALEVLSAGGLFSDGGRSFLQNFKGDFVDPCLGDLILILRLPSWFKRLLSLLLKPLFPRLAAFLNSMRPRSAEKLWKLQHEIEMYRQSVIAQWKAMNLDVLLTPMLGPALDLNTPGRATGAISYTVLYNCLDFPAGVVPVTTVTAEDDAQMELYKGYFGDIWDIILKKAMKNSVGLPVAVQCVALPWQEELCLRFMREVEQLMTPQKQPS
Description: The FAAH (fatty acid amide hydrolase) enzyme preparation was obtained according to the procedure of Lang and Makriyannis et al High Performance Liquid Chromatographic Determination of Anandamide Amidase Activity in Rat Brain Microsomes, Analytical Biochemistry (238): 40-45, 1996.
All compound solutions were made to a concentration of 10 mM in DMSO. Three tests were performed on each compound: hydrolysis, to determine the stability of the compound in assay conditions without the enzyme present; metabolism, to determine the stability of the compound with the enzyme present; and inhibition of anandamide (native substrate) metabolism to arachidonic acid.
Again the reaction mixture was treated in the same manner as described above and the concentrations of AEA and AA were calculated using external standards. Percent inhibition was calculated using the following equation: % Inhib.=(AA15-AA0)i/(AA15-AA0)s where (AA15-AA0)c is the amount of arachidonic acid formed over 15 minutes from AEA with the inhibitor present and (AA15-AA0)s is the amount of arachidonic acid formed over 15 minutes from AEA when the inhibitor is not present. […] The reaction mixtures were treated as described above and the amount of AA formed was calculated. The software package GraphPad Prism was utilized to calculate IC50 and Ki. HPLC Conditions:
Chromatographic separation was achieved using an Ultrasphere ODS Pre-column (4.6×45 mm) from Beckman. Hardware consisted of a Waters Millennium HPLC system with a 20 μL injection loop. The mobile phase consisted of 8.5% o-phosphoric acid:acetonitrile (3:7), run isocratically at a rate of 1 mL/min and detection at 204 nm. The total run time was 8 minutes with AEA eluting at 2.2 minutes and AA at 6.0 minutes.

[2] = molecular target: T2, CB2 receptor (Mus musculus, UniProt P47936); assay: CB2 receptor binding, [3H]CP-55,940 displacement; settings: mouse spleen membranes
T2 construct: membranes were prepared from frozen mouse spleen; from tissue; host or cells: mouse spleen
Description: (§1) The treated membranes were subsequently used in the binding assay described below. Approximately 30 μg of membranes were incubated in silanized 96-well microtiter plate with TME containing 0.1% essentially fatty acid-free bovine serum albumin (BSA), 0.8 nM [^3H] CP-55,940, and various concentrations of test materials in a final volume of 200 μL. The assays were incubated for 1 hour at 30° C. and then immediately filtered using Packard Filtermate 196 harvester and Whatman GF/C filterplates and washed with wash buffer (TME) containing 0.5% BSA. Radioactivity was detected using MicroScint 20 scintillation cocktail added directly to the dried filterplates, and the filterplates were counted using a Packard Instruments Top-Count. Nonspecific binding was assessed using 100 nM CP-55,940. Data collected from three independent experiments performed with duplicate determinations was normalized between 100% and 0% specific binding for [^3H] CP-55,940, determined using buffer and 100 nM CP-55,940. The normalized data was analyzed using a 4-parameter nonlinear logistic equation to yield IC50 values.
For the CB2 receptor binding studies, membranes were prepared from frozen mouse spleen essentially according to the procedure of P. R. Dodd et al, A Rapid Method for Preparing Synaptosomes: Comparison with Alternative Procedures, Brain Res., 226, 107-118 (1981) which is incorporated by reference herein. Silanized centrifuge tubes were used throughout to minimize receptor loss due to adsorption. The CB2 binding assay was conducted in the same manner as for the CB1 binding assay. The binding affinities (Ki) were also expressed in nanomoles (nM).

[3] = molecular target: T3, CB1 cannabinoid receptor (Rattus norvegicus, UniProt P20272); assay: CB1 receptor binding, [3H]CP-55,940 displacement; settings: rat forebrain membranes
T3 construct: membranes were prepared from rat forebrain membranes; from tissue; host or cells: rat forebrain
Description: Some inventive analogs were tested for CB2 receptor binding affinity and for CB1 receptor affinity (to determine selectivity). […] The lower the Ki value, the higher the binding affinity. […] For the CB1 receptor binding studies, membranes were prepared from rat forebrain membranes according to the procedure of P. R. Dodd et al, A Rapid Method for Preparing Synaptosomes: Comparison with Alternative Procedures, Brain Res., 107-118 (1981). The binding of the novel analogues to the CB1 cannabinoid receptor was assessed as described in W. A. Devane et al, Determination and Characterization of a Cannabinoid Receptor in a Rat Brain, Mol. Pharmacol., 34, 605-613 (1988) and A. Charalambous et al, 5′-azido Δ^8-THC: A Novel Photoaffinity Label for the Cannabinoid Receptor, J. Med. Chem., 35, 3076-3079 (1992) with the following changes. The above articles are incorporated by reference herein.
Membranes, previously frozen at −80° C., were thawed on ice. To the stirred suspension was added three volumes of TME (25 mM Tris-HCl buffer, 5 mM MgCl2 and 1 mM EDTA) at a pH 7.4. The suspension was incubated at 4° C. for 30 min. At the end of the incubation, the membranes were pelleted and washed three times with TME.
as §1

[4] = with PMSF (second value of cell), read-out: Ki CB1 (nM) (o/w PMSFQ)
[5] = without PMSF (first value of cell), read-out: Ki CB1 (nM) (o/w PMSFQ)
[6] = with PMSF (second value of cell), read-out: Ki CB1 (nM) (o/w PMSF)
[7] = without PMSF (first value of cell), read-out: Ki CB1 (nM) (o/w PMSF)

T2 sequence (P47936 whole entry): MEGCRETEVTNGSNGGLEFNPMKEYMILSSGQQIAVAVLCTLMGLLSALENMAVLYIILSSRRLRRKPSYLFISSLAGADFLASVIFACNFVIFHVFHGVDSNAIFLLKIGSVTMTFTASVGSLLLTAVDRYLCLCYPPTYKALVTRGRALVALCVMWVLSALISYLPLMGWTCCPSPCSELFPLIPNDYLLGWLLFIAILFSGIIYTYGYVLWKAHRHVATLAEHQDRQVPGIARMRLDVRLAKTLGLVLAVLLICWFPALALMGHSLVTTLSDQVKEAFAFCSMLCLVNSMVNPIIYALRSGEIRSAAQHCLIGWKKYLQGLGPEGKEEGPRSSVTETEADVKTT
T3 sequence (P20272 whole entry): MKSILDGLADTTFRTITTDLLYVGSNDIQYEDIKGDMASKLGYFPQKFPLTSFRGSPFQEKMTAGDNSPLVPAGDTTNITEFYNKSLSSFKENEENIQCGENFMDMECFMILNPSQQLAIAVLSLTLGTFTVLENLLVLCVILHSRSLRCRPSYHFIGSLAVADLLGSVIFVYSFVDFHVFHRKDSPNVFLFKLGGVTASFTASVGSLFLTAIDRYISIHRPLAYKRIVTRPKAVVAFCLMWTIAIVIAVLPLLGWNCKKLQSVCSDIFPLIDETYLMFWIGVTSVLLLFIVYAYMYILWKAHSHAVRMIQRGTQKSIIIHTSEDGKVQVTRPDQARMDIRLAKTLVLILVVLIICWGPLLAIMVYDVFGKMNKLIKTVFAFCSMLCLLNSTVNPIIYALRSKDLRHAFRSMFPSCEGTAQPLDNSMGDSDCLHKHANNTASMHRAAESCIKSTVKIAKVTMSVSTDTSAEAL

SMILES | FAAH % Inhibition [1] [%] | Ki [2] [µM] | Ki [3, 4] [nM] | Ki [3, 5] [nM] | Ki [3, 6] [nM] | Ki [3, 7] [nM]
O=C(CCC/C=C\C/C=C\C/C=C\C/C=C\CCCCc1ccccc1)NCC1CC1 [Compound A1] | 23 | 0.177 | 153 | 94.6 | – | –
COc1cc(CNC(=O)CCC/C=C\C/C=C\C/C=C\C/C=C\CCCCN=[N+]=[N-])ccc1O [Compound A7] | 46 | 0.302 | 80.5 | 165 | – | –
CC/C=C\C/C=C\C/C=C\CCCCCCCCOC(=O)NC[C@H](C)O [Compound B15] | 6.96 | 0.421 | – | – | 481 | 622
[N-]=[N+]=NCCCC/C=C\C/C=C\C/C=C\C/C=C\CCCC(=O)NCC1CC1 [Compound A6] | 11 | 0.426 | 114 | 195 | – | –
CCCCCC=CCC=CCC=CCC=CCCCCOC(=O)NCC(C)O (stereo not drawn) [Compound B3] | 10 | 0.597 | – | – | 396 | 526
O=C(CCC/C=C\C/C=C\C/C=C\C/C=C\CCc1ccccc1)Nc1nccs1 [Compound A4] | 58 | 1.23 | 84.3 | 1180 | – | –
COc1cc(CNC(=O)CCC/C=C\C/C=C\C/C=C\C/C=C\CCCCN=C=S)ccc1O [Compound A12] | 39 | 0.553 | 136 | 193 | – | –
CCCCC/C=C\C/C=C\CCCCCCCCOC(=O)NC[C@H](C)O [Compound B14] | 1.20 | 2.25 | – | – | 405 | 1350
O=C(CCC/C=C\C/C=C\C/C=C\C/C=C\CCCCCBr)NC1CC1 [Compound A18] | 72 | 0.0123 | 0.16 | 25.1 | – | –
CCCCC/C=C\C/C=C\C/C=C\C/C=C\CCCCNC(=O)NC[C@H](C)O [Compound B12] | 17.2 | 0.242 | – | – | 126 | 380
O=C(CCC/C=C\C/C=C\C/C=C\C/C=C\CCc1ccccc1)NCC1CC1 [Compound A2] | 32 | 0.171 | 129 | 729 | – | –
O=C(CCC/C=C\C/C=C\C/C=C\C/C=C\CCc1ccccc1)Nc1ccc(O)cc1 [Compound A3] | 34 | 0.0833 | 58.6 | 183 | – | –

Reference: patent US8202893B2, “Cannabinergic lipid ligands” (University of Connecticut, priority 2004, dated 2012)
